# Columns and labels:
# OVCAR-3 xenograft [1] = assay: OVCAR-3 xenograft model, SRA737 versus Olaparib (Example 3); format: in vivo, mouse; conditions: 100 mg/kg
# HT-29 = assay: In vitro growth inhibition of cancer cell lines by SRA737; format: cell-based; conditions: HT-29 colorectal cancer cell line; APC mutation, c-MYC amplification, BRAF and PIK3CA activation; FIG. 4
# Excerpt: (§1) In cancer cells, replication stress induced by oncogenes (e.g., MYC and RAS oncogenes) and/or loss of function in tumor suppressors (e.g., TP53) results in persistent DNA damage and genomic instability, a trigger of the DDR network. […] SK-BR-3 is a breast cancer cell line harboring a deleterious mutation is TP53 and amplification in c-MYC. HT-29 is a colorectal cancer (CRC) cell line harboring a deleterious mutation in the tumor suppressor gene, adenomatous polyposis coli (APC), an amplification in c-MYC, and an activation mutation in the oncogenes, BRAF and PIK3CA. DU-145 is metastatic prostate cancer cell line harboring a deleterious mutation in the tumor suppressors TP53 and RB1, an amplification in KRAS, and alterations of the DNA damage repair genes TP53B1, MLH1 and MSH3. A673 is a rhabdomyosarcoma cell line harboring genetic alterations in the tumor suppressor genes, CDKN2A and CDKN2B and genetic alterations in the DNA damage repair genes BRCA1, Rad50 and Rad51D. OVCAR-3 is an ovarian cancer cell line harboring a deleterious mutations in the tumor suppressors TP53 and RB1 and an amplification of CCNE1. […] The results of these in vitro experiments confirm that cancer cells with genetic alterations in tumor suppressor genes, oncogenes, and/or DNA damage repair genes are sensitive to inhibition of Chk1.
# DU-145 = assay: as above; format: cell-based; conditions: DU-145 metastatic prostate cancer cell line; TP53 and RB1 mutations, KRAS amplification; FIG. 4
# Excerpt: as §1
# OVCAR-3 = assay: as above; format: cell-based; conditions: OVCAR-3 ovarian cancer cell line; TP53 and RB1 mutations, CCNE1 amplification; FIG. 5
# Excerpt: as §1
# A673 = assay: as above; format: cell-based; conditions: A673 rhabdomyosarcoma cell line; CDKN2A/CDKN2B and BRCA1, Rad50, Rad51D alterations; FIG. 4
# Excerpt: as §1
# SK-BR-3 = assay: as above; format: cell-based; conditions: SK-BR-3 breast cancer cell line; TP53 mutation, c-MYC amplification; FIG. 4
# Excerpt: as §1
# OVCAR-5 = assay: as above; format: cell-based; conditions: OVCAR-5 ovarian cancer cell line; KRAS activation, CCNE1 overexpression; FIG. 5
# Excerpt: as §1
# OVCAR-3 xenograft [2] = assay: OVCAR-3 xenograft model of HGSOC, SRA737 monotherapy (Example 2); format: in vivo; conditions: 100 mg/kg, 3 cycles, 5 days on and 2 days off; FIG. 6B
# Excerpt: The OVCAR-3 tumor cell line was derived from a platinum insensitive patient and harbors an amplification of CCNE1 (encoding cyclin E) and mutation in TP53 (encoding p53), two genomic alterations described herein to contribute to Chk1 inhibitor sensitivity.
compound,measurement,setting,value
"N#Cc1cnc(Nc2cc(NCC3CNCCO3)c(C(F)(F)F)cn2)cn1 (stereo not drawn) [SRA737, 5-[[4-[[morpholin-2-yl]methylamino]-5-(trifluoromethyl)-2-pyridyl]amino]pyrazine-2-carbonitrile]",tumor growth as compared to Olaparib,OVCAR-3 xenograft [1]; FIG. 7A,significantly reduced tumor growth
same,body weight,OVCAR-3 xenograft [1]; FIG. 7B,not significantly altered
same,sensitivity to Chk1 inhibition (growth inhibition),HT-29,demonstrated sensitivity to Chk1 inhibition
same,sensitivity to Chk1 inhibition (growth inhibition),DU-145,demonstrated sensitivity to Chk1 inhibition
same,sensitivity to Chk1 inhibition (growth inhibition),OVCAR-3,demonstrated sensitivity to Chk1 inhibition
same,sensitivity to Chk1 inhibition (growth inhibition),A673,demonstrated sensitivity to Chk1 inhibition
same,sensitivity to Chk1 inhibition (growth inhibition),SK-BR-3,demonstrated sensitivity to Chk1 inhibition
same,sensitivity to Chk1 inhibition (growth inhibition),OVCAR-5,demonstrated sensitivity to Chk1 inhibition
same,tolerability (body weight loss),OVCAR-3 xenograft [2],well tolerated as demonstrated by minimal body weight loss

# — US20200157638A1, “BIOMARKERS AND PATIENT SELECTION STRATEGIES” (SIERRA ONCOLOGY, INC., priority 2017, published 2020)
